Measurements as given in patent US5358945A, “Pyrimidine compound and pharmaceutically acceptable salts thereof” (Mitsui Petrochemical Industries, Ltd., priority 1990, dated 1994).

Columns and labels:
[1] = system: Mouse neuroblastoma cells NS-20Y; test: Neurite appearance in mouse neuroblastoma NS-20Y cells (Table 8); assay type: cell-based;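 also: cells grown in polyornithine-coated dishes, with timing counted from the start of culture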
mouse = test: Acute toxicity in mouse (Table 10); assay type: in vivo
Procedure: The acute toxicity of the compounds of the invention was examined by the following method.
Male ddy-strain 5-week old mice, 4-6 per group, were used as experimental animals. Each of the compounds was dissolved or suspended in saline and administered perorally (p.o.) or intraperitoneally (i.p.), and the toxicity of the compound was assessed 24 hours after the administration.

Mouse neuro 2a cells = test: Neurite outgrowth of mouse neuroblastoma neuro 2a cells (Table 7); assay type: cell-based; details: mean ± S.D.
Procedure: The biological activities in vitro of the compounds of formula (I) on cells of the nervous system were tested. The cells tested were mouse neuroblastoma cell line neuro-2a (Dainippon Pharmaceutical Co., Ltd.) which have been established as the cells of the nervous system. The above nerve cells were grown in an incubator at 37° C. in the presence of 5% carbon dioxide gas exponentially, and the cultured for a certain period of time together with the compounds of formula (I).
The effects of the compounds of this invention on neuroblastoma cells were examined by the following method.
Mouse neuro 2a cells in the logarithmic growth period in the Dulbecco's modified Eagle's medium [DMEM, containing 100 units/ml of penicillin G sodium and 100 micrograms/ml of streptomycin sulfate] containing 10% of FCS were seeded in a 48-well plate so that the number of cells was 1,000 cells/well, and cultured for one day in 0.25 ml of the culture fluid in each well in an incubator containing 5% of carbon dioxide gas in air at 37° C. The medium was replaced by a medium containing each antibiotics and FCS and the cells were further cultured for 24 hours. Then, a 4% aqueous glutaraldehyde solution in the same amount as a medium (0.25 ml) was added, and the culture was left to stand at room temperature for 2 hours to fix the cells. After washing with water, a 0.05% aqueous solution of methylene blue was added to stain the cells. Under a microscope, the number of cells containing outgrown neurites (cells having at least one neurite with a length of at least two times as large as the long diameter of the cell) was counted visually, and the proportion of these cells in the entire cells was calculated. The well was observed over 5 or more visual fields (at least 2% of the entire surface area of the well) continuous to the left and right from a mark put at the center of the well, and more than 200 cells was counted. One drug compound was used in 6 different concentrations at most, and three runs were conducted for each concentration.

[2] = i.p., 24 hours after administration

Row | Structure (SMILES) | The number of cells in which neurites appeared/Total number of cells ([1]; 24 hour, 0.1 mM) | The number of cells in which neurites appeared/Total number of cells ([1]; 24 hour, 0.5 mM) | The number of cells in which neurites appeared/Total number of cells ([1]; 48 hour, 0.2 mM) | The number of cells in which neurites appeared/Total number of cells ([1]; 24 hour, 0.2 mM) | Ratio of the number of cells having neurites with a length of at least two times as large as the diameter of cells to the total number of cells (Mouse neuro 2a cells; 0.1 mM) [%] | Ratio of the number of cells having neurites with a length of at least two times as large as the diameter of cells to the total number of cells (Mouse neuro 2a cells; 0.3 mM) [%] | Estimated LD50 (mouse; [2]) [mg/kg] | The number of cells in which neurites appeared/Total number of cells ([1]; 48 hour, 0.1 mM) | other results
1 | CC(=O)N1CCN(c2ccnc(N3CCCCC3)n2)CC1 [Compound 240] | 3/50 | 5/50 | 5/50 |  |  |  |  |  | The number of cells in which neurites appeared/Total number of cells ([1]; 48 hour, 0.5 mM): 6/50; Estimated LD50 (mouse; in vivo, ip): > 1000 mg/kg
2 | O=C1CCCN1c1ccnc(N2CCOCC2)n1 [Compound 392] |  | 15/50 | 12/50 | 10/50 | 5.6 ± 3.7 | 6.1 ± 4.0 | > 500 |  | The number of cells in which neurites appeared/Total number of cells ([1]; 48 hour, 0.5 mM): 21/50; Ratio of the number of cells having neurites with a length of at least two times as large as the diameter of cells to the total number of cells (Mouse neuro 2a cells; 0.03 mM): 6.6 ± 2.2%
3 | CN(C(=O)c1ccc(O)cc1)c1ccnc(N2CCC(c3ccccc3)CC2)n1 [Compound 264] |  | 3/50 | 3/50 |  |  |  | > 1000 |  | 
4 | CN(C(=O)c1ccc2ccccc2c1)c1ccnc(N2CCC(c3ccccc3)CC2)n1 [Compound 144] |  | 3/50 |  |  | 4.2 ± 0.6 |  |  | 4/50 | Ratio of the number of cells having neurites with a length of at least two times as large as the diameter of cells to the total number of cells (Mouse neuro 2a cells; 0.01 mM): 5.1 ± 0.9%
5 | O=C1CCCN1c1ccnc(N2CCCCC2)n1 [Compound 272] |  |  |  |  | 10.5 ± 2.5 | 25.1 ± 2.7 |  |  | Ratio of the number of cells having neurites with a length of at least two times as large as the diameter of cells to the total number of cells (Mouse neuro 2a cells; 0.01 mM): 5.4 ± 0.4%; Ratio of the number of cells having neurites with a length of at least two times as large as the diameter of cells to the total number of cells (Mouse neuro 2a cells; 1 mM): 20.4 ± 4.9%; Estimated LD50 (mouse; in vivo, ip): 250 to 500 mg/kg
6 | O=C1CCCN1c1ccnc(N2CCCc3ccccc32)n1 [Compound 360] | 5/50 | 6/50 |  |  |  | 6.7 ± 0.8 | > 500 | 3/50 | Ratio of the number of cells having neurites with a length of at least two times as large as the diameter of cells to the total number of cells (Mouse neuro 2a cells; 0.03 mM): 4.8 ± 1.2%
7 | CCC1CCN(c2nccc(N3CCCC3=O)n2)CC1 [Compound 312] | 6/50 | 17/50 | 13/50 | 13/50 | 12.7 ± 2.8 |  | > 500 | 8/50 | The number of cells in which neurites appeared/Total number of cells ([1]; 48 hour, 0.5 mM): 18/50; Ratio of the number of cells having neurites with a length of at least two times as large as the diameter of cells to the total number of cells (Mouse neuro 2a cells; 0.01 mM): 3.8 ± 0.6%; Ratio of the number of cells having neurites with a length of at least two times as large as the diameter of cells to the total number of cells (Mouse neuro 2a cells; 0.03 mM): 4.1 ± 1.2%
8 | CN(C(=O)c1ccc(C=O)cc1)c1ccnc(N2CCCCC2)n1 [Compound 200] |  | 16/50 | 11/50 | 8/50 | 5.8 ± 1.3 | 19.7 ± 3.1 | > 1000 |  | The number of cells in which neurites appeared/Total number of cells ([1]; 48 hour, 0.5 mM): 18/50
9 | O=C1CCCCN1c1ccnc(N2CCC(c3ccccc3)CC2)n1 [Compound 296] |  |  |  |  |  |  | > 1000 |  | 
10 | O=C1CCCN1c1ccnc(N2CCC(c3ccccc3)CC2)n1 [Compound 280] |  |  |  |  | 6.9 ± 1.4 | 7.5 ± 1.1 | > 1000 |  | Ratio of the number of cells having neurites with a length of at least two times as large as the diameter of cells to the total number of cells (Mouse neuro 2a cells; 0.01 mM): 7.1 ± 1.7%; Ratio of the number of cells having neurites with a length of at least two times as large as the diameter of cells to the total number of cells (Mouse neuro 2a cells; 1 mM): 8.1 ± 6.3%
11 | O=C(c1ccccc1)N1CCN(c2ccnc(N3CCCCC3)n2)CC1 [Compound 232] |  |  |  | 3/50 |  |  |  | 4/50 | Estimated LD50 (mouse; in vivo, ip): > 1000 mg/kg
12 | O=C(O)/C=C\C(=O)O.O=CN1CCN(c2ccnc(N3CCCCC3)n2)CC1 [Compound 224, 4-(N-formylpiperazino)-2-piperidino pyrimidine maleate] | 2/50 |  |  |  | 8.9 ± 1.5 | 21.4 ± 3.3 |  | 3/50 | 
13 | O=C(c1ccccc1)N1CCN(c2ccnc(N3CCC(c4ccccc4)CC3)n2)CC1 [Compound 248] |  |  |  | 3/50 |  |  | > 1000 | 3/50 | 
14 | CN(C(=O)c1ccccc1)c1ccnc(N2Cc3ccccc3C2)n1 [Compound 184] | 2/50 |  |  |  | 0.9 ± 0.8 |  |  | 3/50 | Ratio of the number of cells having neurites with a length of at least two times as large as the diameter of cells to the total number of cells (Mouse neuro 2a cells; 0.01 mM): 0.5 ± 0.8%
15 | CC(=O)N1CCN(c2ccnc(N3CCC(c4ccccc4)CC3)n2)CC1 [Compound 256] | 3/50 |  | 3/50 | 3/50 |  |  | > 1000 | 4/50 | 
16 | O=C1CCCCN1c1ccnc(N2CCCCC2)n1 [Compound 288] |  |  |  |  |  |  | > 1000 |  | 
17 | O=CN1CCN(c2ccnc(N3CCCCC3)n2)CC1 [Compound 223] |  |  |  |  |  |  | > 1000 |  | 
